According to patent publication US8236964B2, “Thiazolidine derivatives as orexin receptor antagonists” (Actelion Pharmaceuticals Ltd., priority 2007, dated 2012):

How the values were obtained:
[1] = target: T1, human orexin-2 receptor (Homo sapiens, UniProt O43614); experiment: Intracellular calcium measurements (FLIPR), orexin receptor antagonistic activity, OX2; assay type: cell-based; settings: CHO cells expressing the human orexin-2 receptor; 10 nM orexin-A as agonist
T1 construct: expressed in transfected cells; host or cells: CHO cells (G418 selection)
T1 sequence (O43614 1-444): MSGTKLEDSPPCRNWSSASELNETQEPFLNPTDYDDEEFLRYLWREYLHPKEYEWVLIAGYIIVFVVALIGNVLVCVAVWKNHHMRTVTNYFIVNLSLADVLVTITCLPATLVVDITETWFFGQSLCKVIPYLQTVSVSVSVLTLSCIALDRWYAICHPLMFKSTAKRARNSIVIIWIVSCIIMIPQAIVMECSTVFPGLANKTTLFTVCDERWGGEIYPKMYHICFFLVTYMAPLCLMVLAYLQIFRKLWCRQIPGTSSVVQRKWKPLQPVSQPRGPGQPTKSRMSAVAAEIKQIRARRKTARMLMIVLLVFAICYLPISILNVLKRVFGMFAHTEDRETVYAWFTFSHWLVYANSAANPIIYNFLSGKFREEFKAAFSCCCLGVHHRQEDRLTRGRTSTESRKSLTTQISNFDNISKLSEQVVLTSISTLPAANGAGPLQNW
Protocol: (§1) The orexin receptor antagonistic activity of the compounds of formula (I) is determined in accordance with the following experimental method.
(§2) Intracellular Calcium Measurements:
(§3) Chinese hamster ovary (CHO) cells expressing the human orexin-1 receptor and the human orexin-2 receptor, respectively, are grown in culture medium (Ham F-12 with L-Glutamine) containing 300 μg/ml G418, 100 U/ml penicillin, 100 μg/ml streptomycin and 10% inactivated fetal calf serum (FCS). The cells are seeded at 80,000 cells/well into 96-well black clear bottom sterile plates (Costar) which have been precoated with 1% gelatine in Hanks' Balanced Salt Solution (HBSS). All reagents are from Gibco BRL. The seeded plates are incubated overnight at 37° C. in 5% CO2.
(§4) Human orexin-A as an agonist is prepared as 1 mM stock solution in methanol:water (1:1), diluted in HBSS containing 0.1% bovine serum albumin (BSA) and 2 mM HEPES for use in the assay at a final concentration of 10 nM.
(§5) Antagonists are prepared as 10 mM stock solution in DMSO, then diluted in 96-well plates, first in DMSO, then in HBSS containing 0.1% bovine serum albumin (BSA) and 2 mM HEPES.
(§6) On the day of the assay, 100 μl of loading medium (HBSS containing 1% FCS, 2 mM HEPES, 5 mM probenecid (Sigma) and 3 μM of the fluorescent calcium indicator fluo-3 AM (1 mM stock solution in DMSO with 10% pluronic acid) (Molecular Probes) is added to each well.
(§7) The 96-well plates are incubated for 60 min at 37° C. in 5% CO2. The loading solution is then aspirated and cells are washed 3 times with 200 μl HBSS containing 2.5 mM probenecid, 0.1% BSA, 2 mM HEPES. 100 μl of that same buffer is left in each well.
(§8) Within the Fluorescent Imaging Plate Reader (FLIPR, Molecular Devices), antagonists are added to the plate in a volume of 50 μl, incubated for 20 min and finally 100 μl of agonist is added. Fluorescence is measured for each well at 1 second intervals, and the height of each fluorescence peak is compared to the height of the fluorescence peak induced by 10 nM orexin-A with buffer in place of antagonist. For each antagonist, IC50 value (the concentration of compound needed to inhibit 50% of the agonistic response) is determined. Antagonistic activities of compounds are in the nanomolar range below 1000 nM with respect to the OX1 and/or the OX2 receptor.

[2] = target: T2, human orexin-1 receptor (Homo sapiens, UniProt O43613); experiment: Intracellular calcium measurements (FLIPR), orexin receptor antagonistic activity, OX1; assay type: cell-based; settings: CHO cells expressing the human orexin-1 receptor; 10 nM orexin-A as agonist
T2 construct: expressed in transfected cells; host or cells: CHO cells (G418 selection)
T2 sequence (O43613 1-425): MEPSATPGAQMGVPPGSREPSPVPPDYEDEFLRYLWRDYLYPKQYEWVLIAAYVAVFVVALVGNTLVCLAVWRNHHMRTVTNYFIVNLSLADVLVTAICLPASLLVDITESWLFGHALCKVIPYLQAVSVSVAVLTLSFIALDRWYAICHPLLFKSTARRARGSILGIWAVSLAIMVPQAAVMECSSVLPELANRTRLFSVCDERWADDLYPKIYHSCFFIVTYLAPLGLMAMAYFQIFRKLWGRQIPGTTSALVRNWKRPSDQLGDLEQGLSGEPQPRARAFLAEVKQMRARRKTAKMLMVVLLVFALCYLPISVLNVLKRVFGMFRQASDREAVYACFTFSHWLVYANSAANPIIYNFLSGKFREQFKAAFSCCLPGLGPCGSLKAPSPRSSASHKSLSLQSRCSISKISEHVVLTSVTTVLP
Protocol: as §1, §2, §3, §4, §5, §6, §7
as §8, with “determined.” for “determined. Antagonistic activities of compounds are in the nanomolar range below 1000 nM with respect to the OX1 and/or the OX2 receptor.”

Compound: Cc1nc(C(=O)N2CSC[C@H]2CNC(=O)c2nn(C)c3ccccc23)c(-c2ccc(F)cc2)s1 [Example 4, 1-Methyl-1H-indazole-3-carboxylic acid {(R)-3-[5-(4-fluoro-phenyl)-2-methyl-thiazole-4-carbonyl]-thiazolidin-4-ylmethyl}-amide]
- IC50 [1]: 8 nM

Compound: COc1cccc(-c2sc(C)nc2C(=O)N2CSC[C@H]2CNC(=O)c2cccc3occc23)c1 [Example 11, Benzofuran-4-carboxylic acid {(R)-3-[5-(3-methoxy-phenyl)-2-methyl-thiazole-4-carbonyl]-thiazolidin-4-ylmethyl}-amide]
- IC50 [2]: 1 nM
- IC50 [1]: 1 nM

Compound: Cc1nc(C(=O)N2CSC[C@H]2CNC(=O)c2c(C)nc3sccn23)c(-c2cccc(F)c2)s1 [Example 31, 6-Methyl-imidazo[2,1-b]thiazole-5-carboxylic acid {(R)-3-[5-(3-fluoro-phenyl)-2-methyl-thiazole-4-carbonyl]-thiazolidin-4-ylmethyl}-amide]
- IC50 [2]: 6 nM
- IC50 [1]: 7 nM

Compound: Cc1nc(C(=O)N2CSC[C@H]2CNC(=O)c2c(C)nc3sccn23)c(-c2cccc(C(F)(F)F)c2)o1 [Example 38, 6-Methyl-imidazo[2,1-b]thiazole-5-carboxylic acid {(R)-3-[2-methyl-5-(3-trifluoromethyl-phenyl)-oxazole-4-carbonyl]-thiazolidin-4-ylmethyl}-amide]
- IC50 [2]: 59 nM
- IC50 [1]: 80 nM

Compound: Cc1ccc(-c2nc(C)sc2C(=O)N2CSC[C@H]2CNC(=O)c2c(C)nc3sccn23)cc1 [Example 41, 6-Methyl-imidazo[2,1-b]thiazole-5-carboxylic acid [(R)-3-(2-methyl-4-p-tolyl-thiazole-5-carbonyl)-thiazolidin-4-ylmethyl]-amide]
- IC50 [2]: 7 nM
- IC50 [1]: 11 nM

Compound: O=C(NC[C@@H]1CSCN1C(=O)c1ccccc1-c1ccccc1)c1cccc2occc12 [Example 79, Benzofuran-4-carboxylic acid [(R)-3-(biphenyl-2-carbonyl)-thiazolidin-4-ylmethyl]-amide]
- IC50 [2]: 23 nM
- IC50 [1]: 9 nM

Compound: Cn1nc(C(=O)NC[C@@H]2CSCN2C(=O)c2ccccc2-c2ccccc2)c2ccccc21 [Example 83, 1-Methyl-1H-indazole-3-carboxylic acid [(R)-3-(biphenyl-2-carbonyl)-thiazolidin-4-ylmethyl]-amide]
- IC50 [2]: 6 nM
- IC50 [1]: 6 nM

Compound: Cc1nc(C(=O)N2CSC[C@H]2CNC(=O)c2cc3ccccc3s2)c(-c2ccc(F)cc2)s1 [Example 91, Benzo[b]thiophene-2-carboxylic acid {(R)-3-[5-(4-fluoro-phenyl)-2-methyl-thiazole-4-carbonyl]-thiazolidin-4-ylmethyl}-amide]
- IC50 [2]: 5950 nM
- IC50 [1]: 22 nM

Compound: Cc1nc(C(=O)N2CSC[C@H]2CNC(=O)c2c(C)nc3ccccn23)c(-c2ccc(F)cc2)s1 [Example 110, 2-Methyl-imidazo[1,2-a]pyridine-3-carboxylic acid {(R)-3-[5-(4-fluoro-phenyl)-2-methyl-thiazole-4-carbonyl]-thiazolidin-4-ylmethyl}-amide]
- IC50 [2]: 99 nM
- IC50 [1]: 804 nM

Compound: Cc1nc(C(=O)N2CSC[C@H]2CNC(=O)c2cccc3c2NCCO3)c(-c2ccc(F)cc2)s1 [Example 112, 3,4-Dihydro-2H-benzo[1,4]oxazine-5-carboxylic acid {(R)-3-[5-(4-fluoro-phenyl)-2-methyl-thiazole-4-carbonyl]-thiazolidin-4-ylmethyl}-amide]
- IC50 [2]: 6 nM
- IC50 [1]: 17 nM

Compound: Cc1cccc(-c2sc(C)nc2C(=O)N2CSC[C@H]2CNC(=O)c2cccc3ncoc23)c1 [Example 119, Benzooxazole-7-carboxylic acid [(R)-3-(2-methyl-5-m-tolyl-thiazole-4-carbonyl)-thiazolidin-4-ylmethyl]-amide]
- IC50 [2]: 2 nM
- IC50 [1]: 3 nM

Compound: Cc1cccc(-c2sc(C)nc2C(=O)N2CSC[C@H]2CNC(=O)c2ccc(F)c3occc23)c1 [Example 127, 7-Fluoro-benzofuran-4-carboxylic acid [(R)-3-(2-methyl-5-m-tolyl-thiazole-4-carbonyl)-thiazolidin-4-ylmethyl]-amide]
- IC50 [2]: 2 nM
- IC50 [1]: 1 nM

Compound: Cc1nc(C(=O)N2CSC[C@H]2CNC(=O)c2c(C)cn3ccsc23)c(-c2ccc(F)cc2)s1 [Example 132, 6-Methyl-pyrrolo[2,1-b]thiazole-7-carboxylic acid {(R)-3-[5-(4-fluoro-phenyl)-2-methyl-thiazole-4-carbonyl]-thiazolidin-4-ylmethyl}-amide]
- IC50 [2]: 5 nM
- IC50 [1]: 6 nM

Compound: COC1Cc2c(C(=O)NC[C@@H]3CSCN3C(=O)c3nc(C)sc3-c3cccc(C)c3)ccc(Cl)c2O1 (stereo partly drawn) [Example 133, 7-Chloro-2-methoxy-2,3-dihydro-benzofuran-4-carboxylic acid [(R)-3-(2-methyl-5-m-tolyl-thiazole-4-carbonyl)-thiazolidin-4-ylmethyl]-amide]
- IC50 [2]: 8 nM
- IC50 [1]: 3 nM

Compound: Cc1cccc(-c2sc(C)nc2C(=O)N2CSC[C@H]2CNC(=O)c2ccc(C(F)(F)F)c3occc23)c1 [Example 141, 7-Trifluoromethyl-benzofuran-4-carboxylic acid [(R)-3-(2-methyl-5-m-tolyl-thiazole-4-carbonyl)-thiazolidin-4-ylmethyl]-amide]
- IC50 [2]: 10 nM
- IC50 [1]: 4 nM

Compound: Cc1cccc(-c2sc(C)nc2C(=O)N2CSC[C@H]2CNC(=O)c2cccc3oc(CO)cc23)c1 [Example 147, 2-Hydroxymethyl-benzofuran-4-carboxylic acid [(R)-3-(2-methyl-5-m-tolyl-thiazole-4-carbonyl)-thiazolidin-4-ylmethyl]-amide]
- IC50 [2]: 9 nM
- IC50 [1]: 10 nM
